In data set [1] the test system is endogenous TFE3. Description: TFE3 nuclear translocation, immunocytochemistry high-content imaging. The format is cell-based.
The subject of data set [2] is SH-SY5Y cells.
Source text: The PKIS2 Library was supplied by The Structural Genomics Consortium at the University of North Carolina at Chapel Hill.
The test system of data set [3] is endogenous TFEB. Put plainly: TFEB nuclear translocation, immunocytochemistry high-content imaging. The format is cell-based.
The subject of data set [4] is SH-SY5Y cells. Particulars: human.
The subject of data set [5] is SH-SY5Y cells. The conditions noted are these: human, 24 h, 1 µM.
Procedure: Total cell lysis with 5 µL 5% Triton-X 100 (Sigma-Aldrich, T8787) is used as a positive control for the assay and toxicity is expressed as a percentage of luminescence under DMSO conditions.
In data set [6] the test system is SH-SY5Y cells. Description: AK (adenylate kinase) release ToxiLight cytotoxicity assay. Also: reference of the scale not given here. The conditions noted are these: PKIS2 primary screening.

Where two headings read alike, the source gives them in different places.
For DQ Intensity in this document: reference of the scale not given here.
For DQ Spot in this document: reference of the scale not given here.
For Nuclear Count in this document: reference of the scale not given here.

`O=C1NC(=O)C(c2ccc(Cl)cc2)=C1Nc1cccc(Cl)c1` [UNC10225464A] yielded a TFE3 % in data set [1] of 10.27%. Besides, in data set [2], the “DQ Intensity” value was 132.70 and the “DQ Spot” value came to 111.59. For the same compound, in data set [3], the TFEB % came to 3.70%. In data set [4] (SH-SY5Y cells, 24 h, 1 µM), the “Nuclear Count” value was 85.62. The compound further gave an AK in data set [5] (SH-SY5Y cells) of 74.47.

On to `COc1cccc(C2=C(Nc3ccc(Cl)c(C(=O)O)c3)C(=O)NC2=O)c1` [UNC10225038A], for which, in data set [1], the TFE3 % turned out to be 15.59%. Moreover, in data set [2], the “DQ Intensity” value is reported as 120.07 and the “DQ Spot” value is 110.06. For the same compound, the TFEB % in data set [3] came out at 4.97%. For the same compound, in data set [4] (SH-SY5Y cells, 24 h, 1 µM), the “Nuclear Count” value came to 91.66. Further, the AK in data set [5] (SH-SY5Y cells) came to 67.98.

The compound `COc1cccc(C2=C(Nc3cccc(O)c3)C(=O)NC2=O)c1` [UNC10225456A] came in with a TFE3 % in data set [1] of 7.19%. Besides, in data set [2], the “DQ Intensity” value amounted to 100.94 and the “DQ Spot” value came out at 105.72. In data set [3], this compound returned a TFEB % of 8.57%. In addition, in data set [4] (SH-SY5Y cells, 24 h, 1 µM), the “Nuclear Count” value is on record as 97.83. In data set [5] (SH-SY5Y cells), this compound displayed an AK of 101.77.

As to `CCCCc1nn2ncccc2c1-c1ccnc(NC2CC2)n1` [UNC10225247A], the TFE3 % in data set [1] (PKIS2 primary screening) was found to be 6.63%. Besides, in data set [2] (PKIS2 primary screening), the “DQ Intensity” value was 77.25 and the “DQ Spot” value stood at 98.14. This compound also had a TFEB % in data set [3] (PKIS2 primary screening) of 2.59%. Further, the AK in data set [6] was found to be 99.47. Also, in data set [4], the “Nuclear Count” value amounted to 77.00.

As to `CN(C)CC(O)COc1ccc(Nc2nccc(-c3cnn4nc(N5CCOCC5)ccc34)n2)cc1` (stereo not drawn) [UNC10225197A], in data set [1], the TFE3 % is reported as 12.57%. Besides, in data set [2], the “DQ Intensity” value was 107.33 and the “DQ Spot” value stood at 110.97. Moreover, the TFEB % in data set [3] was determined as 3.40%. This compound also gave an AK in data set [6] of 142.32. In addition, the “Nuclear Count” value in data set [4] was 103.35.

In data set [1], `O=C(Nc1n[nH]c2cc(-c3ccoc3)ccc12)C1CC1` [SB-738481] returned a TFE3 % of 12.05%. In addition, in data set [2], the “DQ Intensity” value worked out at 82.31 and the “DQ Spot” value is 113.23. The TFEB % in data set [3] is 6.46%. Moreover, the “Nuclear Count” value in data set [4] (SH-SY5Y cells, 24 h, 1 µM) stood at 105.01. The same compound came in with an AK in data set [5] (SH-SY5Y cells) of 109.29.

In data set [1], `COc1ccc(C2=C(Nc3cccc(C(=O)O)c3)C(=O)NC2=O)cc1` [UNC10225244A] showed a TFE3 % of 6.87%. Besides, in data set [2], the “DQ Intensity” value came to 74.93 and the “DQ Spot” value came to 82.38. The compound further came in with a TFEB % in data set [3] of 15.51%. Further, the “Nuclear Count” value in data set [4] (SH-SY5Y cells, 24 h, 1 µM) is listed as 109.36. This compound also had an AK in data set [5] (SH-SY5Y cells) of 80.02.

As to `CC(C)Oc1ccc2c(-c3ccnc(Nc4ccc(N5CCN(C)CC5)cc4)n3)cnn2n1` [UNC10225414A], the TFE3 % in data set [1] (PKIS2 primary screening) came out at 8.69%. Further, in data set [2] (PKIS2 primary screening), the “DQ Intensity” value is listed as 74.33 and the “DQ Spot” value was 86.73. Besides, in data set [3] (PKIS2 primary screening), the TFEB % is given as 3.20%. The same compound displayed an AK in data set [6] of 109.44. Further, in data set [4], the “Nuclear Count” value is listed as 127.68.

With `O=C(Nc1n[nH]c2nc(-c3ccccc3)c(Br)cc12)C1CC1` [SB-708998], the TFE3 % in data set [1] stood at 9.05%. In data set [2], the “DQ Intensity” value is recorded as 93.68 and the “DQ Spot” value worked out at 102.39. The same compound yielded a TFEB % in data set [3] of 9.86%. In data set [4] (SH-SY5Y cells, 24 h, 1 µM), the “Nuclear Count” value turned out to be 73.65. The compound further had an AK in data set [5] (SH-SY5Y cells) of 115.51.

Turning to `O=C(Nc1n[nH]c2cc(-c3cccc(F)c3)ccc12)C1CC1` [SB-735464], the TFE3 % in data set [1] was 14.17%. For the same compound, in data set [2], the “DQ Intensity” value came to 82.14 and the “DQ Spot” value worked out at 107.31. The compound further came in with a TFEB % in data set [3] of 2.08%. In addition, the “Nuclear Count” value in data set [4] (SH-SY5Y cells, 24 h, 1 µM) is recorded as 95.28. The same compound displayed an AK in data set [5] (SH-SY5Y cells) of 75.61.

Take `CC(=O)Nc1n[nH]c2ncc(-c3ccccc3)cc12` [SB-548492]: the TFE3 % in data set [1] is reported as 13.46%. In data set [2], the “DQ Intensity” value is on record as 81.01 and the “DQ Spot” value was 101.49. This compound also displayed a TFEB % in data set [3] of 4.73%. Also, the “Nuclear Count” value in data set [4] (SH-SY5Y cells, 24 h, 1 µM) is listed as 87.30. In data set [5] (SH-SY5Y cells), the AK is 85.75.

Turning to `COc1ccccc1C1=C(Nc2cccc(O)c2)C(=O)NC1=O` [UNC10225043A], in data set [1], the TFE3 % amounted to 13.36%. In addition, in data set [2], the “DQ Intensity” value was 136.47 and the “DQ Spot” value is 112.45. The same compound registered a TFEB % in data set [3] of 8.14%. Also, the “Nuclear Count” value in data set [4] (24 h, 1 µM) was 83.80. In data set [5], this compound gave an AK of 125.63.

For `CSc1ccc(NC2=C(c3ccccc3Cl)C(=O)NC2=O)cc1` [UNC10225346A], the TFE3 % in data set [1] was 14.52%. Also, in data set [2], the “DQ Intensity” value is listed as 121.64 and the “DQ Spot” value is given as 113.39. In addition, in data set [3], the TFEB % is on record as 6.03%. The “Nuclear Count” value in data set [4] (SH-SY5Y cells, 24 h, 1 µM) worked out at 103.43. In data set [5] (SH-SY5Y cells), this compound registered an AK of 105.29.

The values above are taken from publication PMC9851200, “Multiparameter phenotypic screening for endogenous TFEB and TFE3 translocation identifies novel chemical series modulating lysosome function” (Autophagy, 2022).
